The text below walks through data of paper PMC3002932 (PLoS ONE, 2010).

Where two headings read alike, the source gives them in different places.

Series [1] has as its system human red blood cells (hRBCs). The format is cell-based. As to the method:
Heparinized fresh blood (∼3 ml) was collected from an anonymous donor. A 200 µl aliquot was removed and washed 4× with 800 µl of cold PBS at RT for 3 min at ∼500×g. After each centrifugation, 780 µl of supernatant was removed. After the last wash, the supernatant was completely removed and the packed red blood cells were diluted 1∶20 in PBS to prepare a 5% v/v stock suspension of hRBCs.
All experiments were carried out in triplicate using 96-well microplate (Costar 3596) and the OD at 700 nm was monitored every 30 s. employing the SpectraMAX 250 microplate reader (Molecular Devices, Sunnyvale, CA). Controls included PBS, untreated human RBCs, and human RBCs +2.5% Triton (100% lysis). The hemolytic effect was calculated as follows: [drawing 1]

The nature of series [2]: SDS-PAGE in non-reductive conditions. Type of series: physicochemical. Particulars: inconclusive.
Series [3] is described as follows: FTIR spectroscopy secondary structure. The format is physicochemical. The method, then: Infrared spectra were recorded at 25°C using a Bruker Vector 22™ FTIR spectrometer with a deuterated triglycine sulfate (DTGS) detector, and averaged over 256 scans at a gain of 4 with a resolution of 2 cm^−1. Peptide samples were initially freeze-dried several times from 10 mM HCl in D2O to remove any interfering counter ions and residual H2O. Solution spectra of peptides were made in deuterated 10 mM phosphate buffer, pD = 7.4 (pD = pH+0.4) and in structure promoting mixed solvent-buffer solutions (trifluoroethanol (TFE) or hexafluoroiso propanol (HFIP). Spectra were acquired using a temperature controlled, demountable liquid cell with calcium fluoride windows fitted with a 50 µm thick spacer (Harrick Scientific, Pleasantville, NY). The relative proportions of α-helix, β-turn, β-sheet, and disordered conformations of solution and multilayer IR spectra were determined by Fourier self-deconvolution for band narrowing and area calculations of component peaks of the FTIR spectra using curve-fitting software supplied by Galactic Software (GRAMS/AI, version 8.0; Thermo Electron Corp., Waltham, MA). The frequency limits for the different structures were: α-helix (1662–1645 cm^−1), β-sheet (1637–1613 and 1710–1682 cm^−1), turns (1682–1662 cm^−1), and disordered or random (1650–1637 cm^−1).

A further series deals with gp120BAL. In words: SPR binding to gp120BAL. The settings on record: BIAcore CM5 chip, HBS-EP pH = 7.4, KD±SEM, average from at least 5 independent experiments. Details: species or system HIV-1. A general note: Surface plasmon resonance follows binding to a sensor surface in real time, without labels.
The mark [4] stands for this setting: 0.5 mM in 10 mM phosphate buffer pH = 7.5, 25°C.
Where [5] appears, read: 0.5 mM in HFIP:10 mM phosphate buffer pH = 7.5 (4∶6, v∶v), 25°C.
Where [6] appears, read: 0.5 mM in TFE:10 mM phosphate buffer pH = 7.5 (4∶6, v∶v), 25°C.

Method for gp120BAL: Surface plasmon resonance (SPR) studies were performed on a BIAcore 3000 system (BiaCore AB, Piscataway, NJ), using BIAcore CM5 sensor chips and HBS-EP running buffer (pH = 7.4) containing 10 mM HEPES, 150 mM NaCl, 3 mM EDTA, and 0.005% polysorbate 20. Proteins/peptides were immobilized on a CM5 sensor chip using the amine coupling method. The chip was activated by mixing 400 mM N-ethyl-N-(3-dimethylaminopropyl)-carbodiimide hydrochloride and 100 mM N-hydroxysuccinimide. Residual reactive groups on the chip surface were blocked using 1.0 M ethanolamine/HCl (pH = 8.5). The flow cell-1 chamber, which served as a control, lacked immobilized protein but was treated with N-ethyl-N-(3-dimethylaminopropyl)-carbodiimide hydrochloride, N-hydroxysuccinimide, and ethanolamine/HCl. Binding signals were corrected for nonspecific binding by subtracting the flow cell-1 signal. To regenerate chip surfaces, bound ligands were removed with 10 mM HCl. Data were analyzed with BIAevaluation 4.1 software (Biacore, Piscataway, NJ).

For orientation: Kd means a measure of binding affinity in units of concentration. High values mean weaker binding, low ones tighter binding. Turning to “Cha-SC-Chg-R-Chg-RSGSY-Cha-DN-Chg-R-Chg-(D)Cys-CONH2 (disulfide) [GRFN-1]”, the Hemolysis in series [1] (2.5 µM) stood at 1.2±0.7%; in series [1] (5 µM), 2.8±2.3%; in series [1] (10 µM), 7.3±1.3%. For the same substance, the “apparent size of dimers” value in series [2] is recorded as approximately 4.5 kDa. In addition, the results for the disordered in series [3] (setting [4]), in series [3] (setting [5]) and in series [3] (setting [6]) were 27.6%, 25.8% and 24.8%, respectively. In addition, the turns in series [3] (setting [4]) came out at 22.4%; in series [3] (setting [5]), 17.2%; in series [3] (setting [6]), 20.3%. In addition, the α-helix in series [3] (setting [4]) is recorded as 12.4%; in series [3] (setting [5]) it was 48.6%; in series [3] (setting [6]) it was 23.2%. Moreover, the β-sheet in series [3] (setting [4]) is given as 37.6%; in series [3] (setting [5]) it was 8.4%; in series [3] (setting [6]), 31.7%. The “secondary structure (in words)” value was “shift from β-sheet to more helical conformations” in series [3] (TFE:buffer and HFIP:buffer); “dominant β-sheet structure” in series [3] (aqueous buffer). The Kd at gp120BAL amounted to 1060 ± 220 nM.
